In test [1] the test system is CLL68 chronic lymphocytic leukemia cells. The note with it: read-out: IC50 (CLL68); primary patient cells, 24 h.
From the text: (§5) For chronic lymphocytic leukemia, mononuclear cells were isolated from peripheral blood using a Ficoll gradient (GE Healthcare). Primary cells from other lymphoma entities were isolated as previously described [80]. All cells were cryopreserved after isolation and thawed as previously described [81].
(§6) The resazurin reduction assay, which is also known as AlamarBlue® assay, was used for the determination of cell viability in all cytotoxicity determinations shown in the present work, as previously described [22]. Briefly, cells were seeded at a specific density depending on the incubation time (24 h: 1 × 10^6 cells/ml) in a 96-well plate and incubated with increasing compound concentrations (0.01–30 µM). After the specified treatment time, resazurin (Sigma, #R7017) was added to a final concentration of 40 µM. […] The viability of control cells was set to 100% and all other values were normalized to the control condition, the dose-response curves were then fitted with Prism v7.01 (GraphPad software, La Jolla, CA, USA).
In the next test the test system is MOLT4. The note with it: read-out: IC50 (MOLT4); cytotoxicity, 24 h.
In test [2] the test system is FL303 follicular lymphoma cells. Conditions: read-out: IC50 (FL303); primary patient cells, 24 h.
From the text: as §5
(§7) The resazurin reduction assay, which is also known as AlamarBlue® assay, was used for the determination of cell viability in all cytotoxicity determinations shown in the present work, as previously described [22]. Briefly, cells were seeded at a specific density depending on the incubation time (24 h: 1 × 10^6 cells/ml) in a 96-well plate and incubated with increasing compound concentrations (0.01–30 µM). After the specified treatment time, resazurin (Sigma, #R7017) was added to a final concentration of 40 µM. […] The viability of control cells was set to 100% and all other values were normalized to the control condition, the dose-response curves were then fitted with Prism v7.01 (GraphPad software, La Jolla, CA, USA). The reduction of resazurin to resorufin is proportional to aerobic respiration; therefore, it is used as a measure for the cell viability and cytotoxicity of a tested compound.
Another test concerns the target T1, CDK9/cyclin T (Homo sapiens, UniProt P50750).
T1 construct: purchased BPS Bioscience #79628
Put plainly: luminescence-based kinase activity assay. It counts as biochemical. The note with it: result in words. Here is the method:
(§1) The activity of specific CDKs and their cyclins was assessed using CDK Kits from BPS Bioscience (CDK1/cyclin B1 #79597; CDK2/cyclin A2 #79599; CDK9/cyclin T #79628). The assay was conducted following the manufacturer’s guidelines. In summary, the CDK/cyclin complexes, as purified recombinant enzymes, were allowed to react with CDK substrate peptide, ATP, and kinase buffer in the presence or absence of meriolins. The reaction was initiated by adding diluted CDK/cyclin enzyme to the wells and incubating for 45 min at 30 °C. After the incubation, the Kinase-Glo-Max® reagent was added as a detection reagent, and the resulting luciferase reaction produced luminescence, which was inversely correlated with the kinase activity.
(§2) The luminescent CDK/cyclin assay is a method that quantifies the amount of ATP remaining in the solution after a kinase reaction. Luminescence was measured using the Synergy Mix microplate reader as an endpoint measurement. Data analyses were performed according to the manufacturer’s instructions, and statistical analysis was carried out using one-way ANOVA, with corrections made by Bonferroni’s multiple comparison test. The significance level was indicated as ****p ≤ 0.0001.

Another test concerns the target T2, CDK2/cyclin A2 (Homo sapiens, UniProt P24941).
T2 construct: purchased BPS Bioscience #79599
Kind of test: luminescence-based kinase activity assay. The note with it: result in words. It is filed as biochemical. Here is the method:
as §1, §2

The next test addresses T3, CDK1/cyclin B1 (Homo sapiens, UniProt P06493).
T3 construct: purchased BPS Bioscience #79597
Put plainly: luminescence-based kinase activity assay. The note with it: result in words. It counts as biochemical. The protocol:
as §1, §2

Test [3] relates to CLL17 chronic lymphocytic leukemia cells. Conditions: read-out: IC50 (CLL17); primary patient cells, 24 h.
From the text: as §5, §6
In test [4] the test system is FL100 follicular lymphoma cells. The note with it: read-out: IC50 (FL100); primary patient cells, 24 h.
From the text: as §5, §6
Test [5] has as its system retinoblastoma (RB) protein phosphorylation. Kind of test: immunoblotting of phospho-RB in Ramos cells. It counts as cell-based, human. Conditions: for phosphorylation of RB at p-Ser249 and p-Thr252: 0.1 or 1 µM (R547 1 µM). The protocol:
(§3) Cells were seeded at a density of 2 × 10^6 cells, treated as specified and harvested by centrifugation at 3000 rpm for 5 min, followed by freezing in liquid nitrogen. The cell pellets were thawed on ice and quick-frozen and defrozen in liquid nitrogen for three times, then lysed on ice in lysis buffer (20 mM Tris-HCl, 150 mM NaCl, 1% v/v Triton X-100, 0.5 mM EDTA, 10 mM NaF, 2.5 mM Na4P2O7, protease inhibitor (Sigma, #P2714)) for 30 min, accompanied by vortexing. Subsequently, centrifugation 13,300 rpm for 15 min purified cell lysates from cell debris. The supernatant was transferred to a new tube and the protein concentration was determined by Bradford assay. The samples were diluted with sample buffer. SDS-Page and Western Blot were conducted in accordance with standard workflows. […] The antibody baths were stored at 4 °C and re-used.
(§4) The density of the individual protein band was determined using Image Studio^TM Lite Version 5.2. The density of each protein was divided by the average of all bands of this protein. The ratios of the protein of interest were normalized to the ratio of the respective loading control. To determine the fold change, each normalized ratio was divided by the normalized band of the control line (untreated cells). Fold change is 1 for the control line, n ≥ 2. The results are shown as mean ± standard deviation and were visualized with GraphPad Prism 7.
(In general: In western blotting, separated proteins are transferred to a membrane and probed.)

The subject of a further test is HPBALL. Conditions: read-out: IC50 (HPBALL); cytotoxicity, 24 h.
The subject of test [6] is FL169 follicular lymphoma cells. Conditions: read-out: IC50 (FL169); primary patient cells, 24 h.
From the text: as §5, §6
For another test, the system named is Ramos cells. Kind of test: BrdU cell proliferation assay. It counts as cell-based, human. Conditions: 24 h, non-lethal doses. The protocol:
The Bromodeoxyuridine (BrdU) Cell Proliferation kit from Millipore (#QIA58-1000TEST) was used to measure proliferation of cells. The manufacturer protocol has been optimized as described in the following. 1 × 10^4 cells per well were seeded in a 96-well plate. The cells were pre-incubated with the compounds of interest for 1 h. Following this, the BrdU solution was added and the cells were incubated for a total of 24 h. BrdU is an analog of the nucleoside thymidine and is incorporated into the DNA of dividing cells during replication. Culture medium was removed and cells were fixed and denatured with Fixative/Denaturing solution for 30 min at room temperature. Since suspension cells were used, they had to be centrifuged at 1200 rpm for 5 min after each following step. After, the anti-BrdU-antibody was incubated for 1 h at RT. Cells were washed three times with washing buffer. The secondary antibody, which is coupled to HRP (horseradish peroxidase) was incubated for 30 min at RT. Again, cells were washed three times with washing buffer.
Then, the substrate solution was added, that contained TMB (3,3’,5,5’-Tetramethylbenzidine), which is oxidized by HRP. Oxidation of TMB causes a color change from colorless to blue. The intensity of color change is correlated with the number of bound peroxidases, which depends on the quantity of primary antibodies and therefore on the content of the incorporated BrdU. If the cells are not proliferating, no BrdU is incorporated, resulting in a weak signal.
After 15 min incubation time the stopping reagent was added, causing a pH change and resulting in a color change from blue to yellow. The colored reaction product was quantified at 450 nm using a spectrophotometer. For all measurements, three technical replicates were made. The control was set to 100% proliferation, and the treated cells were normalized to the control. The results were visualized using GraphPad Prism 7.

Test [7] deals with CDK9 and cyclin T1 protein levels. Put plainly: immunoblotting of CDK9 and cyclin T1 in Ramos cells. It is filed as cell-based, human. The note with it: 0.1 and 1 µM, 4-24 h. The protocol: as §3, §4
For another test, the system named is SUPB15. The note with it: read-out: IC50 (SUPB15); cytotoxicity, 24 h.
The next test has as its system KOPTK1. The note with it: read-out: IC50 (KOPTK1); cytotoxicity, 24 h.
In the next test the test system is K562. Conditions: read-out: IC50 (K562); cytotoxicity, 24 h.

The term IC50 denotes the concentration that inhibits the measured activity by half.

T1 sequence (P50750 whole entry): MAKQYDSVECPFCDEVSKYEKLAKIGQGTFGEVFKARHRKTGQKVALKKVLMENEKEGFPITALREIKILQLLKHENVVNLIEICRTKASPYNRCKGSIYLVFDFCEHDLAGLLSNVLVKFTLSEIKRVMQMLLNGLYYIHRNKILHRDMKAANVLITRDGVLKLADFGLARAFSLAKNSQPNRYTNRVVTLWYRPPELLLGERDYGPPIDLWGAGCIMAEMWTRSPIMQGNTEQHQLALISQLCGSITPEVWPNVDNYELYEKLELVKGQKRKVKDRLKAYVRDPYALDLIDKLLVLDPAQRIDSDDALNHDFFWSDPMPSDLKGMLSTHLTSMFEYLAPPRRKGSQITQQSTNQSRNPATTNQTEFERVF
T1 sequence (O60563 whole entry partner): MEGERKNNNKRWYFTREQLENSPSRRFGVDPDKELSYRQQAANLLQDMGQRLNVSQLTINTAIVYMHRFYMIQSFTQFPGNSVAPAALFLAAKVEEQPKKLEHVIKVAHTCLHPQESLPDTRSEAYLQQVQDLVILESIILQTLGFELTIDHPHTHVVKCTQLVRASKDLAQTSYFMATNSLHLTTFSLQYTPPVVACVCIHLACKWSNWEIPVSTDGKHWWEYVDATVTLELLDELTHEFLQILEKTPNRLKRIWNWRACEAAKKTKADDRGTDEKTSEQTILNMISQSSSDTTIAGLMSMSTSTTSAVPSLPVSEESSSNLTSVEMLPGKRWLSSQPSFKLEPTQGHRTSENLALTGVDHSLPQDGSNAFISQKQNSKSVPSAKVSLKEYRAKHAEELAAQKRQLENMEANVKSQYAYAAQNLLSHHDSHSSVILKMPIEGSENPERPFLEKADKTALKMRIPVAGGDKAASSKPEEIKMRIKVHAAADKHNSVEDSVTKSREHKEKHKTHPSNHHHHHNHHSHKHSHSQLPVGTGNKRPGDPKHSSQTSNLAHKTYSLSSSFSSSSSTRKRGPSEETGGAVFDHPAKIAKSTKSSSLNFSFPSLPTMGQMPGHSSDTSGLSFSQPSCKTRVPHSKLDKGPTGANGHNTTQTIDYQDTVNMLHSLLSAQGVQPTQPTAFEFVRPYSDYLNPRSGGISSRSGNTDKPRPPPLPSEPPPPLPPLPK
T3 sequence (P06493 whole entry): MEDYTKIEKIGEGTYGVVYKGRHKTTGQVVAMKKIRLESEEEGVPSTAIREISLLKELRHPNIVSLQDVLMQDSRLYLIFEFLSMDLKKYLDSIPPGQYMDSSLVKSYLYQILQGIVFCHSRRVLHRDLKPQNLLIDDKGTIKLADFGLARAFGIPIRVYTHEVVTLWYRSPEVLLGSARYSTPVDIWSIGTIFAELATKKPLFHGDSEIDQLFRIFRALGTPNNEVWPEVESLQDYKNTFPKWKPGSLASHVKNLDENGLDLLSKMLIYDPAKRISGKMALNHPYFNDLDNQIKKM
T3 sequence (P14635 whole entry partner): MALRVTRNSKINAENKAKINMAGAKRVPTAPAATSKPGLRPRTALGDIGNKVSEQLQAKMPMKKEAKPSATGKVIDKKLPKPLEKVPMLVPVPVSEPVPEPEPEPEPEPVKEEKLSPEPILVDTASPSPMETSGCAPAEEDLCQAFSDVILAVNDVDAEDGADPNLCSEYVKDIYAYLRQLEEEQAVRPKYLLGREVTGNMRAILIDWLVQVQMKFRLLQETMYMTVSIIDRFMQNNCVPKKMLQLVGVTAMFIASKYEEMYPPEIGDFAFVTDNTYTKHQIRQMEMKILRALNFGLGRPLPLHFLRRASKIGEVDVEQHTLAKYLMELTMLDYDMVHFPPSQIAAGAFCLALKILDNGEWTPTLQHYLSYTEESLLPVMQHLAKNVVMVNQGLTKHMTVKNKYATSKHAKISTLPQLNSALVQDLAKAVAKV
Method for HPBALL: as §7
Method for K562: as §7
Method for KOPTK1: as §7
Method for MOLT4: as §7
Method for SUPB15: as §7

As for `COc1ccnc2[nH]cc(-c3cc(N)nc(N)c3)c12` [meriolin 16], the IC50 in test [1] was found to be 60 nM; in the test with MOLT4, 20 nM; in [2], 60 nM; in test [3], 50 nM; in test [4], 60 nM; with HPBALL, 20 nM. The 50% inhibitory concentration (IC50) was determined as 2820 nM in test [6], 20 nM in the test on SUPB15, 10 nM with KOPTK1 and 40 nM in the test with K562. Besides, the “inhibition of CDK9/cyclin T” value at CDK9/cyclin T is given as “inhibited”. Also, at CDK2/cyclin A2, the “inhibition of CDK2/cyclin A2” value is given as “inhibited”. Moreover, the “inhibition of CDK1/cyclin B1” value on CDK1/cyclin B1 is listed as “inhibited”. The “phosphorylation of RB at p-Ser612 and p-Thr821” value in [5] (0.1 and 1 µM, up to 24 h) is reported as “no longer phosphorylated”; in [5] (0.1 and 1 µM, up to 24 h, listed as Meriolin 16), “loss of the phosphorylations”. In addition, the “phosphorylation of RB at p-Ser249 and p-Thr252” value in [5] (up to 24 h) was “reduced the phosphorylation”. Further, the “proliferation (BrdU incorporation)” value in the test on Ramos cells is reported as “substantial decrease in proliferation”. Also, the “CDK9 and cyclin T1 protein levels” value in [7] is listed as “decrease”.
Consider `c1ccc(CNc2cc(-c3c[nH]c4ncccc34)ccn2)cc1` [meriolin 36], for which the IC50 was 420 nM in test [1]; 3480 nM in the test with MOLT4; 170 nM in [2]; 110 nM in test [3]; 90 nM in [4]; 3440 nM in the test on HPBALL. Further, the IC50 in test [6] worked out at 100 nM; in the test with SUPB15, 1650 nM; in the test with KOPTK1, 1220 nM; in the test with K562, 940 nM. For the same compound, at CDK9/cyclin T, the “inhibition of CDK9/cyclin T” value is reported as “inhibited”. For the same compound, the “inhibition of CDK2/cyclin A2” value at CDK2/cyclin A2 is reported as “inhibited”. Besides, the “inhibition of CDK1/cyclin B1” value on CDK1/cyclin B1 is “inhibited”. For the same compound, the “phosphorylation of RB at Ser612” value in test [5] (0.1 and 1 µM) was “increase of the phosphorylation”. Further, the “phosphorylation of RB at p-Thr821” value in test [5] (0.1 and 1 µM (R547 1 µM), up to 24 h) is on record as “no notable change”. Further, in test [5] (0.1 and 1 µM, up to 24 h), the “phosphorylation of RB at p-Ser612 and p-Thr821” value is listed as “This effect was not observed”. Besides, the “phosphorylation of RB at p-Ser249 and p-Thr252” value in test [5] (up to 24 h) is “no effect”. Moreover, in the test with Ramos cells, the “proliferation (BrdU incorporation)” value is on record as “substantial decrease in proliferation”. Moreover, in test [7], the “CDK9 and cyclin T1 protein levels” value is “relatively stable”.

The values are drawn from publication PMC11167047 (Cell Death Discovery, 2024).
